From US10400263B2, “Tripeptide rhodamine compound” (Kingston Uninversity Higher Education Corporation, priority 2012, dated 2019)

What was measured:
[1] = tested on: S. aureus; assay: LGX test on volunteers' nasal swabs with prothrombin or prethrombin; assay type: cell-based, Staphylococcus aureus; settings: for samples tested positive for S. aureus: threshold 20,000 RFU
Description: A population of 113 volunteers were administered a “set” of swabs, comprising two swabs that were pre-moistened with sterile H2O, and one swab that was dry. Each volunteer swabbed the internal periphery of each nostril with the two moistened swabs. Each volunteer then subsequently swabbed the internal periphery of each nostril with the dry swab. The swabs were then placed into amies transport medium to maintain bacterial cell viability. Each sample was anonymous and the study was randomised.
A 100 μL solution of 100 μM LGX with either 1×prothrombin or 1×prethrombin (buffered to pH 8.5 with Tris base and NaCl), was pipetted into sterile 1.5 mL eppendorf tubes. Each moistened swab was placed into the eppendorf tube, and cut to a length to facilitate closure of the tube, with a pair of sterilised scissors. Each tube was subjected to vigorous agitation and the swab tips were removed with sterile forceps. The remaining solution was subsequently pipetted into a microtitre plate (Nunclon 96 well plates). The relative fluorescence of the sample was then recorded every fifteen minutes over a six hour time period (λex.=488 nm and λem=525 nm).
In tandem with this, the remaining swabs (in amies transport medium) were transferred onto pre warmed mannitol salt agar (chromogenic agar for the determination of S. aureus) plates and incubated for up to 48 hours at 37° C. The colour change and colony appearance of the bacteria was noted. […] Following this, 20 separate, discrete colonies were sub-cultured onto nutrient agar and also onto Baird Parker Agar (agar for the determination of S. aureus and S. epidermidis). After an overnight culture at 37° C., colony morphology and appearance was observed (S. aureus colonies are large with a pale “halo” surrounding the colonies, S. epidermidis colonies are small and black).
Additionally, isolates from the nasal swabs cultured on nutrient agar were tested for coagulase activity using a staphylase test kit (oxoid). Loopfuls of bacteria were assayed based on coagulase mediated clumping of fibrinogen-sensitised ovine blood cells.
A final test to determine the identification of the bacteria within each sample, a gram stain was performed. This is based on the presence of peptidoglycan in gram positive cells and their ability to retain crystal violet. S. aureus is a gram positive bacterium. Briefly, a drop of sterile dH2O was placed on a microscope slide and a small amount of culture was applied to this and allowed to air dry. The slide was passed though a flame to fix the bacteria. Crystal Violet was applied to each slide, followed by washing with dH2O. Iodine was then added to the slides, followed by washing with dH2O and subsequent decolourisation with ethanol and another wash with dH2O. Each slide was counterstained with carbol fushchin (for gram negative), rinsed again and allowed to dry.
Each swab sample was examined for the presence of S. aureus based on the above identification techniques, and termed “positive” or “negative”. The results were compared to the finding of the assay of the current invention (LGX test), with either prethrombin or prothrombin, and plotted on a bar chart as a function of relative fluorescence units.

[2] = tested on: S. hominus; assay: LGX system, S. hominus; assay type: cell-based
Description: (§1) Each sample was rinsed liberally in sterile 1×PBS and varying concentrations of bacterial suspension from 10^0-10^6 were generated by serial dilution in 1×PBS. Additionally, bacterial cultures were furthermore maintained on nutrient agar to assess the coagulase status of the isolate.
To determine the effects of varying bacterial concentrations with respect to bacterial strains and concentrations of the compounds according to the present invention on staphylocoagulase activity, 100 and 50 μM solutions containing LGX were prepared in 1×PBS with the addition of 0.05 M Tris Buffer and 0.1 M NaCl to maintain a pH of 8.5 using LGX dissolved in MeOH so that final concentration of methanol was no more than 2.5%. […]
The plate reader used was a Fluostar Optima, and the plates used were Nunclon Surface 96 well plates. […]
(§2) To determine the effects of varying bacterial concentrations with respect to bacterial strains and LGX concentrations on staphylocoagulase activity, 100 and 50 μM solutions of LGX were prepared in 1×PBS with the addition of 0.05 M Tris Buffer and 0.1 M NaCl to maintain a pH of 8.5 using LGX dissolved in MeOH so that final concentration of methanol was no more than 2.5%. […] The plate reader used was a Fluostar Optima, and the plates used were Nunclon Surface 96 well plates.

[3] = tested on: E. coli; assay: LGX staphylocoagulase fluorescence assay, E. coli strains; assay type: cell-based; settings: for fluorescence over the 6 hour time period: high and low concentrations
Description: as §1
(§3) To determine the effects of varying bacterial concentrations with respect to bacterial strains and concentrations of the compounds according to the present invention on staphylocoagulase activity, 100 and 50 μM solutions containing LGX were prepared in 1×PBS with the addition of 0.05 M Tris Buffer and 0.1 M NaCl to maintain a pH of 8.5 using LGX dissolved in MeOH so that final concentration of methanol was no more than 2.5%. Furthermore, an appropriate concentration (100 μM and 50 μM, respectively) of human prothrombin was added to the solution.
(§4) The plate reader used was a Fluostar Optima, and the plates used were Nunclon Surface 96 well plates. Positive controls for each experiment was a strain of MRSA, and the negative control for each experiment was a strain of E. coli, both of which were picked at random to ensure there was no bias within the data. A 1:1 ratio of the LGX solution with PBS was also assayed as “LGX alone” sample, which has been designated as a black line on the graphs below. n=3 cultures were assayed in each case.
(§5) Clinical isolates of Methicillin Resistant Staphylococcus Aureus (MRSA), Methicillin Sensitive Staphylococcus Aureus (MSSA), Staphylococcus Epidermidis, Eschericia coli and other staphyloccal species were cultured on nutrient agar prior to being grown overnight in nutrient broth under shaking conditions at 37° C. Each sample was rinsed liberally in sterile 1×PBS and varying concentrations of bacterial suspension from […] were generated by serial dilution in 1×PBS. Additionally, bacterial cultures were furthermore maintained on nutrient agar to assess the coagulase status of the isolate.
as §2, with “2.5%. Furthermore, an appropriate concentration (100 μM and 50 μM, respectively) of human prothrombin was added to the solution. 90 μl of LGX solution in addition to each respective bacterial isolate at varying concentrations was added to a microtitre plate.” for “2.5%.”

[4] = tested on: MSSA; assay: LGX staphylocoagulase fluorescence assay, MSSA isolates; assay type: cell-based, Staphylococcus aureus
Description: as §1, §3, §4, §5
as §2, with “2.5%. Furthermore, an appropriate concentration (100 μM and 50 μM, respectively) of human prothrombin was added to the solution. 90 μl of LGX solution in addition to each respective bacterial isolate at varying concentrations was added to a microtitre plate.” for “2.5%.”

[5] = tested on: MRSA and MSSA; assay: LGX staphylocoagulase fluorescence assay, MRSA and MSSA together; assay type: cell-based, Staphylococcus aureus
Description: as §1, §3, §4, §5
as §2, with “2.5%. Furthermore, an appropriate concentration (100 μM and 50 μM, respectively) of human prothrombin was added to the solution. 90 μl of LGX solution in addition to each respective bacterial isolate at varying concentrations was added to a microtitre plate.” for “2.5%.”

CC(C)[C@H](NC(=O)OC(C)(C)C)C(=O)N1CCC[C@H]1C(=O)N[C@@H](CCCNC(=N)N)C(=O)Nc1ccc2c(c1)Oc1cc(NC(=O)[C@H](CCCNC(=N)N)NC(=O)[C@@H]3CCCN3C(=O)[C@@H](NC(=O)OC(C)(C)C)C(C)C)ccc1C21OC(=O)c2ccccc21 (stereo partly drawn) [LGX, Rho-(Arg-Pro-Val-NHBoc)2]
time in which S. aureus was efficiently detected ([1]; 100 μM LGX with 1×prethrombin): 15 min
samples tested positive for S. aureus ([1]; 100 μM LGX with 1×prethrombin, 15 minutes): approximately 49 samples
samples tested positive for S. aureus ([1]; 100 μM LGX with 1×prethrombin, 60 minutes): approximately 49 samples
time in which S. aureus was efficiently detected ([1]; 100 μM LGX with 1×prothrombin): 15 min
samples tested positive for S. aureus ([1]; 100 μM LGX with 1×prothrombin, 15 minutes, 113 volunteers): approximately 29 samples
samples tested positive for S. aureus ([1]; 100 μM LGX with 1×prothrombin, 60 minutes): approximately 34 samples
LGX SYSTEM [2]: −
fluorescence over the duration of the experiment ([3]; 50 μM LGX, E. coli strains 10^6, 10^5, 10^3 and 10^2, FIG. 6): remain consistently low
fluorescence over the 6 hour time period ([3]; 50 μM LGX, E. coli, FIG. 13): no increase in fluorescence was observed
samples above 20,000 fluorescence units after 1 hour ([3]; 50 μM LGX, all concentrations of bacteria, E. coli): 0%
fluorescence response within 1 hour ([3]; 50 μM or 100 μM LGX, E. coli): ≤ 5000 fluorescence units
fluorescence across the 6 hour time period ([3]; 100 μM LGX, E. coli strains, FIG. 7): remained consistently low
fluorescence over the 6 hour time period ([3]; 100 μM LGX, E. coli, FIG. 14): no increase in fluorescence was observed
LGX SYSTEM ([3]; E. COLI): −
samples reaching maximum fluorescence ([4]; 50 μM LGX, MSSA 10^2, 6 hours): no samples reached maximum fluorescence
samples reaching the maximum reading of 65,000 RFU within 2.5 hours ([4]; 50 μM LGX, MSSA 10^3): 25%
samples that had reached maximum fluorescence within 6 hours ([4]; 50 μM LGX, MSSA 10^3): 60%
samples failed to reach maximum fluorescence within 6 hours ([4]; 50 μM LGX, MSSA 10^5): 5%
samples reaching the maximum reading of 65,000 RFU within 2 hours ([4]; 50 μM LGX, MSSA 10^5): 75%
time by which maximum fluorescence level was reached ([4]; 50 μM LGX, MSSA 10^6): ≤ 2 h
samples achieving a fluorescence reading of 20,000 within 1 hour ([4]; 100 μM LGX, MSSA 10^2): 90%
samples reached maximum fluorescence over a 6 hour time period ([4]; 100 μM LGX, MSSA 10^2): 25%
samples reached maximum fluorescence within 2 hours ([4]; 100 μM LGX, MSSA 10^2): 5%
samples reached maximum fluorescence within 4 hours ([4]; 100 μM LGX, MSSA 10^3): 45%
samples in which fluorescence reached its upper limits within 1 hours ([4]; 100 μM LGX, MSSA 10^4): 70%
samples remained below maximum fluorescence ([4]; 100 μM LGX, MSSA 10^4): 20%
LGX SYSTEM ([4]; MSSA): +
isolates failed to reach a fluorescence reading of 20,000 within 30 minutes ([5]; 50 μM LGX, 10^2 cell concentration of MRSA and MSSA): 20%
isolates failed to reach a fluorescence reading of 20,000 within 30 minutes ([5]; 50 μM LGX, 10^3 cell concentration of MRSA and MSSA): 5%
time for fluorescence to reach a maximum ([5]; 50 μM LGX, MRSA and MSSA 10^5, FIG. 13): approximately 3 hours
fluorescence reading reached (almost instantaneous reaction) ([5]; 50 μM LGX, MRSA and MSSA 10^6, FIG. 13): 65,000 RFU
samples above 20,000 fluorescence units after 1 hour ([5]; 50 μM LGX, all concentrations of bacteria, MRSA and MSSA): more than 80%
samples with a fluorescence reading greater than 20,000 within 30 minutes ([5]; 100 μM LGX, 10^3 cell concentration and above): 100%
fluorescence reading reached (almost instantaneous reaction) ([5]; 100 μM LGX, MRSA and MSSA 10^4 and 10^3, and MSSA 10^2, FIG. 14): 65,000 RFU
response compared with 100 and 500 μM coumarin system ([5]; 100 μM LGX, MRSA and MSSA at 10^2, FIG. 12): superior response in terms of selectivity and speed
lowest bacterial concentration at which presence of bacteria is detected ([5]; no culturing, fluorescence 525 nm (ex 488 nm)): 10^2
sensitivity advantage over N-t-BOC-val-pro-arg-7-amido-4-methylcoumarin ([5]; response at 10^2 Staphylococcus aureus units, 525 nm (ex 488 nm)): several orders of magnitude (10^4 bacteria)
sensitivity relative to the existing commercial dye system ([5]; staphylothrombin assay for detection of MRSA and MSSA, estimate): 10 times
